Source: patent US20100137275A1 (IPSEN PHARMA S.A.S., priority 2007, published 2010)

What was measured:
[1] = test system: Mia-PaCa2 (human pancreas cancer cells); test: Anti-proliferative activity on Mia-Paca2 cell line (WST1 colorimetric test); assay type: cell-based; settings: MIA PaCa-2, 96 h, 96 hours treatment, read-out: IC50 on proliferation of the Mia-Paca2 cell line
Protocol: (§1) By way of an example, the effect of treating two human cell lines Mia-Paca2 and DU145 with the compounds of the examples described hereinbefore will be studied. The cell lines DU145 (human prostate cancer cells) and Mia-PaCa2 (human pancreas cancer cells) were obtained from the American Tissue Culture Collection (Rockville, Md., USA). A 96-well plate was inoculated on day 0 with cells placed in 80 μl of Dulbecco's modified Eagle's medium (Gibco-Brl, Cergy-Pontoise, France) with 10% heat-inactivated foetal calf serum (Gibco-Brl, Cergy-Pontoise, France), 50000 units/1 of penicillin and 50 mg/l of streptomycin (Gibco-Brl, Cergy-Pontoise, France), and 2 mM of glutamine (Gibco-Brl, Cergy-Pontoise, France). The cells were treated on day 1 with increasing concentrations of each test compound up to 10 μM for 96 hours. At the end of this period, cell proliferation is quantified by means of a colorimetric test based on cleavage of the tetrazolium salt WST1 by the mitochondrial dehydrogenases in the viable cells, resulting in formation of formazan (Boehringer Mannheim, Meylan, France). These tests are performed in duplicate with 8 determinations per concentration tested. For each compound to be tested, the values within the linear part of the sigmoid curve were subjected to linear regression analysis and used to estimate the IC50 inhibitory concentration. The products are solubilised in dimethylsulfoxide (DMSO) at a concentration of 10^−2 M and used in culture with a final DMSO concentration of 0.1%.

[2] = biological target: T1, purified recombinant Cdc25-C enzyme (MBP-Cdc25C protein) (Homo sapiens, UniProt P30307); test: Phosphatase activity of the purified recombinant Cdc25C enzyme (OMFP dephosphorylation, fluorescence); assay type: biochemical; settings: OMFP 500 μM, 4 hours at 30° C.
T1 construct: made in house
T1 sequence (P30307 1-473): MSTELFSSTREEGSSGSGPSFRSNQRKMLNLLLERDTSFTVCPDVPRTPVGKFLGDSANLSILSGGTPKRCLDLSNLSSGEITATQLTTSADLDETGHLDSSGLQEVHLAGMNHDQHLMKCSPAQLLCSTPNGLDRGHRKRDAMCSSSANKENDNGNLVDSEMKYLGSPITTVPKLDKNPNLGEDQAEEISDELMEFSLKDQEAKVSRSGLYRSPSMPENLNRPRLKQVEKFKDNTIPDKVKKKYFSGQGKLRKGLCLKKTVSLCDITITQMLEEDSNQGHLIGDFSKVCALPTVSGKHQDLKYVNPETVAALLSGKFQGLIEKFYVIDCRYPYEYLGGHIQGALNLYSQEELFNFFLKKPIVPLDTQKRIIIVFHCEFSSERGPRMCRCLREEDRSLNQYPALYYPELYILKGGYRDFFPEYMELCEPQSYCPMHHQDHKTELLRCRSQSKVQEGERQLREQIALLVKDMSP
Procedure, shortened: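 MBP-Cdc25C fusion protein in 50 mM Tris-HCl pH 8.2, 50 mM NaCl, 1 mM DTT, 20% glycerol; reaction started with 500 μM OMFP (final). Compounds tested at decreasing concentrations from 40 μM; 4 h at 30 °C, OMF fluorescence read at 475 nm. IC50 from three independent experiments by linear regression over the linear part of the sigmoid.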

[3] = test system: DU145 (human prostate cancer cells); test: Anti-proliferative activity on DU-145 cell line (WST1 colorimetric test); assay type: cell-based; settings: DU-145, 96 h, 96 hours treatment, read-out: IC50 on the proliferation of the DU-145 cell line
Protocol: as §1

| Compound | IC50 [1] | IC50 [2] | melting point | IC50 [3] |
| --- | --- | --- | --- | --- |
| CN(CCNC(=S)Nc1ccc(S(=O)(=O)Nc2ccccc2)cc1)CCNc1cc(N2CCCC2)nc(N2CCCC2)n1 [Example 62, 4-{[({2-[{2-[(2,6-dipyrrolidin-1-ylpyrimidin-4-yl)amino]ethyl}(methyl)amino]ethyl}amino)carbonothioyl]amino}-N-phenylbenzenesulfonamide] | ≤ 5 µM | ≤ 1 µM | 146 to 148 °C | ≤ 5 µM |
| CN(CCNC(=S)Nc1ccc(Cl)cc1)CCNc1cc(N(C)C)nc(N(C)C)n1 [Example 73, N-{2-[(2-{[2,6-bis(dimethylamino)pyrimidin-4-yl]amino}ethyl)(methyl)amino]ethyl}-N′-(4-chlorophenyl)thiourea] | ≤ 5 µM | ≤ 5 µM | 127 to 129 °C | ≤ 5 µM |
| CN(CCNC(=S)NCc1ccc(F)cc1)CCNc1cc(N2CCCC2)nc(N2CCCC2)n1 [Example 46, N-{2-[{2-[(2,6-dipyrrolidin-1-ylpyrimidin-4-yl)amino]ethyl}(methyl)amino]ethyl}-N′-(4-fluorobenzyl)thiourea] | ≤ 5 µM | ≤ 1 µM | 64 to 66 °C | ≤ 5 µM |
| CN(CCNC(=S)Nc1ccccc1F)CCNc1cc(N2CCCC2)nc(N2CCCC2)n1 [Example 42, N-{2-[{2-[(2,6-dipyrrolidin-1-ylpyrimidin-4-yl)amino]ethyl}(methyl)amino]ethyl}-N′-(2-fluorophenyl)thiourea] | ≤ 5 µM | ≤ 5 µM | 105 to 107 °C | ≤ 5 µM |
| CN(CCNc1cc(N2CCCC2)nc(N2CCCC2)n1)CCNS(=O)(=O)c1ccc(C(F)(F)F)cc1 [Example 89, N-{2-[{2-[(2,6-dipyrrolidin-1-ylpyrimidin-4-yl)amino]ethyl}(methyl)amino]ethyl}-4-(trifluoromethyl)benzenesulfonamide] | ≤ 5 µM | ≤ 5 µM | 140 to 142 °C | ≤ 5 µM |
| CN(CCNC(=S)Nc1ccc(-n2cccn2)cc1)CCNc1cc(N2CCCC2)nc(N2CCCC2)n1 [Example 48, N-{2-[{2-[(2,6-dipyrrolidin-1-ylpyrimidin-4-yl)amino]ethyl}(methyl)amino]ethyl}-N′-[4-(1H-pyrazol-1-yl)phenyl]thiourea] | ≤ 5 µM | ≤ 5 µM | 116 to 118 °C | ≤ 5 µM |
| CN(CCNC(=O)Nc1ccc(Cl)cc1)CCNc1cc(N2CCCC2)nc(N2CCCC2)n1 [Example 16, N-(4-chlorophenyl)-N′-{2-[{2-[(2,6-dipyrrolidin-1-ylpyrimidin-4-yl)amino]ethyl}(methyl)amino]ethyl}urea] | ≤ 5 µM | ≤ 1 µM | 71 to 73 °C | ≤ 5 µM |
| CN(CCNC(=S)Nc1ccc(Cl)cc1)CCNc1cc(N2CCC2)nc(N2CCC2)n1 [Example 75, N-(4-chlorophenyl)-N′-{2-[{2-[(2,6-diazetidin-1-ylpyrimidin-4-yl)amino]ethyl}(methyl)amino]ethyl}thiourea] | ≤ 5 µM | – | 146 to 148 °C | ≤ 5 µM |
| CN(CCNc1cc(N2CCCC2)nc(N2CCCC2)n1)CCNS(=O)(=O)c1cccc(C(F)(F)F)c1 [Example 88, N-{2-[{2-[(2,6-dipyrrolidin-1-ylpyrimidin-4-yl)amino]ethyl}(methyl)amino]ethyl}-3-(trifluoromethyl)benzenesulfonamide] | ≤ 5 µM | ≤ 5 µM | 203 to 205 °C | ≤ 5 µM |
| O=C(NCCCCCNc1cc(N2CCCC2)nc(N2CCCC2)n1)Nc1ccc(Cl)cc1 [Example 19, N-(4-chlorophenyl)-N′-{5-[(2,6-dipyrrolidin-1-ylpyrimidin-4-yl)amino]pentyl}urea] | ≤ 5 µM | ≤ 1 µM | 192 to 193 °C | ≤ 5 µM |
| CN(CCNC(=S)Nc1ccc(Cl)nc1)CCNc1cc(N2CCCC2)nc(N2CCCC2)n1 [Example 53, N-(6-chloropyridin-3-yl)-N′-{2-[{2-[(2,6-dipyrrolidin-1-ylpyrimidin-4-yl)amino]ethyl}(methyl)amino]ethyl}thiourea] | ≤ 5 µM | ≤ 1 µM | 96 to 98 °C | ≤ 5 µM |
| CN(CCNC(=S)Nc1ccc(S(=O)(=O)c2ccc(Br)cc2)cc1)CCNc1cc(N2CCCC2)nc(N2CCCC2)n1 [Example 60, N-{4-[(4-bromophenyl)sulfonyl]phenyl}-N′-{2-[{2-[(2,6-dipyrrolidin-1-ylpyrimidin-4-yl)amino]ethyl}(methyl)amino]ethyl}thiourea] | ≤ 5 µM | ≤ 1 µM | 118 to 120 °C | ≤ 5 µM |
| CN(CCNC(=S)Nc1ccc(S(=O)(=O)N2CCCCC2)cc1)CCNc1cc(N2CCCC2)nc(N2CCCC2)n1 [Example 27, N-{2-[{2-[(2,6-dipyrrolidin-1-ylpyrimidin-4-yl)amino]ethyl}(methyl)amino]ethyl}-N′-[4-(piperidin-1-ylsulfonyl)phenyl]thiourea] | ≤ 5 µM | ≤ 5 µM | 120 to 122 °C | ≤ 5 µM |
| COc1cc(NC(=S)NCCN(C)CCNc2cc(N3CCCC3)nc(N3CCCC3)n2)cc(OC)c1OC [Example 38, N-{2-[{2-[(2,6-dipyrrolidin-1-ylpyrimidin-4-yl)amino]ethyl}(methyl)amino]ethyl}-N′-(3,4,5-trimethoxyphenyl)thiourea] | ≤ 5 µM | ≤ 1 µM | 109 to 111 °C | ≤ 5 µM |
| CN(CCNC(=S)Nc1cccnc1Oc1ccc(F)cc1F)CCNc1cc(N2CCCC2)nc(N2CCCC2)n1 [Example 47, N-[2-(2,4-difluorophenoxy)pyridin-3-yl]-N′-{2-[{2-[(2,6-dipyrrolidin-1-ylpyrimidin-4-yl)amino]ethyl}(methyl)amino]ethyl}thiourea] | ≤ 5 µM | ≤ 1 µM | 108 to 110 °C | ≤ 5 µM |
| CN(CCNC(=O)Nc1cccc2nsnc12)CCNc1cc(N2CCCC2)nc(N2CCCC2)n1 [Example 15, N-2,1,3-benzothiadiazol-4-yl-N′-{2-[{2-[(2,6-dipyrrolidin-1-ylpyrimidin-4-yl)amino]ethyl}(methyl)amino]ethyl}urea] | ≤ 5 µM | ≤ 1 µM | 126 to 128 °C | ≤ 5 µM |
| CN(CCNC(=O)Nc1ccc(Cl)c(Cl)c1)CCNc1cc(N2CCCC2)nc(N2CCCC2)n1 [Example 17, N-(3,4-dichlorophenyl)-N′-{2-[{2-[(2,6-dipyrrolidin-1-ylpyrimidin-4-yl)amino]ethyl}(methyl)amino]ethyl}urea] | ≤ 5 µM | ≤ 1 µM | 138 to 139 °C | ≤ 5 µM |
